# Laboratory results from US20240190883A1, “KRAS PROTEIN DEGRADERS, PHARMACEUTICAL COMPOSITIONS THEREOF, AND THEIR THERAPEUTIC APPLICATIONS” (BioTheryX, Inc., priority 2021, published 2024).
# Columns and labels:
# Format in all cases: cell-based
# Conditions in all cases: 24 h, HiBiT signal normalized to CTG signal
# KRAS protein [1] = molecular target: T1, KRAS protein (Homo sapiens, UniProt P01116); experiment: HIBIT degradation assay, HEK293 cells
# T1 construct: engineered to express a Hobbit-tagged endogenous KRAS protein; endogenous in cells; host or cells: HEK293, endogenous KRAS locus engineered with a HiBiT tag
# Experimental: (§1) HEK293, MIA PaCa-2, AsPc-1, SW620, and H647 cells were engineered to express a […] endogenous KRAS protein. The HEK293 and MIA PaCa-2 cells were cultured in DMEM media supplemented with 10% fetal bovine serum, streptomycin, and penicillin. The AsPc-1, SW620, and H647 were cultured in RPMI media supplemented with 10% fetal bovine serum, streptomycin, and penicillin. The cells were seeded in white walled 96-well plates at 20,000 cells/well in 100 μL culture media in duplicate plates. After incubated at 37° C. under 5% CO2 overnight, the cells were treated with DMSO (control) or a compound, followed by the addition of 100 μL culture media to each well. After the cells were incubated for 24 h at 37° C. under 5% C02, 150 μL media were removed from each well and 50 μL NANOGLO-LGBIT lytic reagent were added to each well, and 50 μL CELLTITER-GLO (CTG) reagent was added to the duplicate plate. Following a 10-minute incubation with shaking, luminescence was measured using a Perkin Elmer ENVISION multimode plate reader. HiBiT signal was normalized to CTG signal. The results are summarized in Table 3, where “A” represents a percentage degradation value of no less than 50%; “B” represents a percentage degradation value of less than 50% and no less than 25%; “C” represents a percentage degradation value of less than 25% and no less than 10%; and “D” represents a percentage degradation value of less than 10%.
# KRAS protein [2] = molecular target: T2, KRAS protein (Homo sapiens, UniProt P01116, G12C); experiment: HIBIT degradation assay, MIA PaCa-2 cells
# T2 construct: engineered to express a Hobbit-tagged endogenous KRAS protein; endogenous in cells; host or cells: MIA PaCa-2, endogenous KRAS locus engineered with a HiBiT tag
# Experimental: as §1
# KRAS protein [3] = molecular target: T3, KRAS protein (Homo sapiens, UniProt P01116, G12D); experiment: HIBIT degradation assay, AsPC-1 cells
# T3 construct: engineered to express a Hobbit-tagged endogenous KRAS protein; endogenous in cells; host or cells: AsPC-1, endogenous KRAS locus engineered with a HiBiT tag
# Experimental: as §1
# T2 sequence (P01116 whole entry G12C): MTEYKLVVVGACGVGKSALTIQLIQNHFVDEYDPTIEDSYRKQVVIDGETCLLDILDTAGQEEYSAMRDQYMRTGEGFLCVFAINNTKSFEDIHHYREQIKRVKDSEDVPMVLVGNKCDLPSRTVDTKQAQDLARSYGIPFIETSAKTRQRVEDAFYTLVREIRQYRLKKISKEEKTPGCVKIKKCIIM
# T1 sequence (P01116 1-188 isoform P01116-2): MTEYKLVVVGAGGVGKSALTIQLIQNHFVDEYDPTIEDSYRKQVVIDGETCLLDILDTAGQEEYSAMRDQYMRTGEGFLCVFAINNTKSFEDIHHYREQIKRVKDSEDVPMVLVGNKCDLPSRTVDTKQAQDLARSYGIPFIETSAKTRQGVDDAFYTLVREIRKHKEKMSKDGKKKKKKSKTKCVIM
# T3 sequence (P01116 1-188 isoform P01116-2 G12D): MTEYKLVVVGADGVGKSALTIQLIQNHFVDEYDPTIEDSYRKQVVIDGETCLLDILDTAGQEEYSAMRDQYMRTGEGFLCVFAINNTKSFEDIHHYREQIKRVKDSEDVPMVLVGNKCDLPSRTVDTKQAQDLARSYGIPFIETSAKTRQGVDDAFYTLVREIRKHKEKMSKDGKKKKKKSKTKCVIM
smiles,measurement,setting,value
"Cc1nn2c(N3CCN(CCO)CC3)cc(-c3ccc(F)cc3)nc2c1-c1cccc(CCCCCN2CCN(C(=O)CNc3ccc4c(C5CCC(=O)NC5=O)nn(C)c4c3)CC2)c1 (stereo not drawn) [Compound D19, 3-(6-((2-(4-(5-(3-(5-(4-Fluorophenyl)-7-(4-(2-hydroxyethyl)piperazin-1-yl)-2-methylpyrazolo[1,5-a]pyrimidin-3-yl)phenyl)pentyl)piperazin-1-yl)-2-oxoethyl)amino)-1-methyl-1H-indazol-3-yl)piperidine-2,6-dione]","Effect on KRAS Protein Degradation, HEK293, 3 μM",KRAS protein [1]; compound at 3 μM,D (a percentage degradation value of less than 10%)
same,"Effect on KRAS Protein Degradation, HEK293, 5 μM",KRAS protein [1]; compound at 5 μM,D (a percentage degradation value of less than 10%)
same,"Effect on KRAS Protein Degradation, MIA PaCa-2, 3 μM",KRAS protein [2]; compound at 3 μM,D (a percentage degradation value of less than 10%)
same,"Effect on KRAS Protein Degradation, MIA PaCa-2, 5 μM",KRAS protein [2]; compound at 5 μM,C (a percentage degradation value of less than 25% and no less than 10%)
same,"Effect on KRAS Protein Degradation, AsPC-1, 3 μM",KRAS protein [3]; compound at 3 μM,C (a percentage degradation value of less than 25% and no less than 10%)
same,"Effect on KRAS Protein Degradation, AsPC-1, 5 μM",KRAS protein [3]; compound at 5 μM,C (a percentage degradation value of less than 25% and no less than 10%)
